US11993574B2, “Pyrazole and imidazole compounds for inhibition of IL-17 and RORgamma” (REATA PHARMACEUTICALS, INC., priority 2018, dated 2024)
pIC50: −log10 of the molar value.

Assays:
Assay type in all cases: cell-based
[1] = tested on: IL-17A; assay: IL-17 release from differentiated primary human T-cells (IL-17A HTRF assay); settings: primary human CD4+ T cells differentiated into Th17 cells, 45-hour incubation, IL-17A in supernatant; read-out: hIL17 IC50
Method in brief: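 Primary human CD4+ T cells (~2×10^5/well) given compound (2–500 or 4–1000 nM, 0.1% DMSO), CD3/CD28-activated and Th17-differentiated (TGF-β, IL-6, IL-23, IL-1β) for 45 h at 37° C. Supernatant IL-17A by HTRF against standard curve, normalized to vehicle; IC50 by variable-slope regression, with parallel CyQuant viability.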

[2] = target: T1, Human RAR-related Orphan Receptor Gamma (RORγ) (Homo sapiens, UniProt P51449); assay: RORγ assay (GAL4-RORγ hybrid luciferase reporter, Indigo Biosciences); settings: inverse-agonist activity, GAL4-RORγ reporter cells, 23 hours
T1 sequence (P51449 269-508 limits assumed): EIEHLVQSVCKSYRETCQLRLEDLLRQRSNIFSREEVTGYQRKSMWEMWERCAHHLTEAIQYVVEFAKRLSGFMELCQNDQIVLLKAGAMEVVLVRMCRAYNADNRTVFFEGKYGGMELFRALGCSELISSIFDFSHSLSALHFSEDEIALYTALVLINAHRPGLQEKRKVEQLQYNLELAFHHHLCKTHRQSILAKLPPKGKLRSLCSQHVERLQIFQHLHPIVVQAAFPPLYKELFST
Method in brief: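 […]engineered human reporter cell line expressing GAL4-DBD/RORγ-LBD hybrid with GAL4-UAS luciferase; constitutive activity measured as inverse agonism. Cells treated with compound (7.8-2000 nM) for 23 h at 37 °C; luminescence normalized to DMSO, IC50 by variable-slope fit, with parallel viability readout to flag non-specific inhibition.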

[3] = tested on: Nrf2 transcription factor; assay: AREc32 luciferase reporter assay; settings: Homo sapiens; AREc32 cells, 19 hours; concentration required to increase GST ARE luciferase reporter activity by 2-fold; read-out: NRF2 ARE 2-Fold (EC2×)
Method in brief: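 AREc32 cells (MCF-7 with firefly luciferase under eight rat GSTA2 ARE copies) treated 19 h with compound (0.4-200 nM or 3.9-2000 nM) in triplicate. Luminescence normalized to DMSO as fold-induction, capped at 50-fold. EC2× = concentration giving 2-fold reporter increase, interpolated from variable-slope fit.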

pIC50 [1]	pIC50 [2]	Structure (SMILES)	EC (2-fold) [3] [µM]
6.72	7.10	COc1ccc(-n2nc3c(c2-c2ccccc2)CC[C@@H]2[C@@H](C)C(=O)C(C#N)=C[C@@]32C)cc1 [T116]	0.483
6.97	6.94	C[C@H]1C(=O)C(C#N)=C[C@@]2(C)c3nn(-c4ccc(Cl)c(Cl)c4)c(-c4ccccc4)c3CC[C@H]12 [T117]	0.834
6.80	6.91	Cc1ccc(-n2nc3c(c2-c2ccccc2)CC[C@@H]2[C@@H](C)C(=O)C(C#N)=C[C@@]32C)cc1 [T118]	0.635
7.37	6.80	C[C@H]1C(=O)C(C#N)=C[C@@]2(C)c3nn(-c4ccc(-c5ccccc5)cc4)c(CC4CCC4)c3CC[C@H]12 [T119]	1.16
7.27	7.04	C[C@H]1C(=O)C(C#N)=C[C@@]2(C)c3nn(-c4ccc(-c5ccccc5)cc4)c(-c4ccncn4)c3CC[C@H]12 [T120]	0.908
7.07	6.62	C[C@H]1C(=O)C(C#N)=C[C@@]2(C)c3nn(-c4cccc(-c5ccccc5)c4)c(-c4ccncn4)c3CC[C@H]12 [T121]	1.07
6.61	7.01	C[C@H]1C(=O)C(C#N)=C[C@@]2(C)c3nn(-c4ccncc4)c(-c4ccc(F)cc4)c3CC[C@H]12 [T122]	0.441
7.30	6.86	C[C@H]1C(=O)C(C#N)=C[C@@]2(C)c3nn(-c4ccc(-c5ccccc5)cc4)c(-c4ccccc4F)c3CC[C@H]12 [T123]	1.18
7.11	6.91	C[C@H]1C(=O)C(C#N)=C[C@@]2(C)c3nn(-c4ccc(-c5ccccc5)cc4)c(-c4ccncc4)c3CC[C@H]12 [T124]	0.651
7.07	6.86	C[C@H]1C(=O)C(C#N)=C[C@@]2(C)c3nn(-c4ccc(-c5ccccc5)cc4)c(-c4cccnc4)c3CC[C@H]12 [T125]	0.877
7.68	6.60	C[C@H]1C(=O)C(C#N)=C[C@@]2(C)c3nn(-c4cccc(-c5ccccc5)c4)c(-c4cccc(F)c4)c3CC[C@H]12 [T126]	1.12
7.21	6.57	C[C@H]1C(=O)C(C#N)=C[C@@]2(C)c3nc(-c4ccc(-c5ccccc5)cc4)n(-c4cccc(F)c4)c3CC[C@H]12 [T127]	1.12
6.93	6.80	C[C@H]1C(=O)C(C#N)=C[C@@]2(C)c3nc(-c4cccc(-c5ccccc5)c4)n(-c4cccc(F)c4)c3CC[C@H]12 [T128]	0.818
7.14	6.67	CC(C)c1ccc(-c2nc3c(n2-c2cccc(F)c2)CC[C@@H]2[C@@H](C)C(=O)C(C#N)=C[C@@]32C)cc1 [T129]	1.29
6.56	6.46	C[C@H]1C(=O)C(C#N)=C[C@@]2(C)c3nc(C4CCOCC4)n(-c4cccc(F)c4)c3CC[C@H]12 [T130]	1.78
6.86	6.77	CC(C)c1ncc(-c2nc3c(n2-c2cccc(F)c2)CC[C@@H]2[C@@H](C)C(=O)C(C#N)=C[C@@]32C)cn1 [T131]	0.767
6.94	6.96	C[C@H]1C(=O)C(C#N)=C[C@@]2(C)c3nc(-c4ccc(N(C)C)cc4)n(-c4cccc(F)c4)c3CC[C@H]12 [T132]	1.02
6.61	6.65	Cc1nc2c(n1-c1cccc(F)c1)CC[C@@H]1[C@@H](C)C(=O)C(C#N)=C[C@@]21C [T133]	0.767
6.74	6.84	C[C@H]1C(=O)C(C#N)=C[C@@]2(C)c3nc(-c4ccccc4)n(-c4cccc(F)c4)c3CC[C@H]12 [T134]	0.832
6.80	6.85	C[C@H]1C(=O)C(C#N)=C[C@@]2(C)c3nc(-c4ccnc5ccccc45)n(-c4cccc(F)c4)c3CC[C@H]12 [T135]	0.896
6.84	6.72	C[C@H]1C(=O)C(C#N)=C[C@@]2(C)c3nc(-c4cccc5ncccc45)n(-c4cccc(F)c4)c3CC[C@H]12 [T136]	0.753

pIC50 [1]	pIC50 [2]	Structure (SMILES)	EC (2-fold) [3] [µM]
6.62	7.03	C[C@H]1C(=O)C(C#N)=C[C@@]2(C)c3nc(-c4cnc5ccccc5c4)n(-c4cccc(F)c4)c3CC[C@H]12 [T137]	0.618
6.70	6.55	CC(C)c1cccc(-c2nc3c(n2-c2cccc(F)c2)CC[C@@H]2[C@@H](C)C(=O)C(C#N)=C[C@@]32C)c1 [T138]	0.941
6.89	6.95	C[C@H]1C(=O)C(C#N)=C[C@@]2(C)c3nc(-c4ccnc(N5CCOCC5)c4)n(-c4cccc(F)c4)c3CC[C@H]12 [T139]	0.66
6.54	6.95	C[C@H]1C(=O)C(C#N)=C[C@@]2(C)c3nc(Cc4ccccc4)n(-c4cccc(F)c4)c3CC[C@H]12 [T140]	1.27
6.71	6.84	C[C@H]1C(=O)C(C#N)=C[C@@]2(C)c3nc(-c4ccnc(C(F)(F)F)c4)n(-c4cccc(F)c4)c3CC[C@H]12 [T141]	0.892
6.81	7.12	C[C@H]1C(=O)C(C#N)=C[C@@]2(C)c3nc(-c4ccc(C5CC5)nc4)n(-c4cccc(F)c4)c3CC[C@H]12 [T142]	0.861
6.88	7.02	C[C@H]1C(=O)C(C#N)=C[C@@]2(C)c3nc(-c4cccc(N5CCOCC5)c4)n(-c4cccc(F)c4)c3CC[C@H]12 [T143]	0.643
6.68	6.76	C[C@H]1C(=O)C(C#N)=C[C@@]2(C)c3nc(-c4ccnc(C5CC5)c4)n(-c4cccc(F)c4)c3CC[C@H]12 [T144]	1.12
7.06	7.04	C[C@H]1C(=O)C(C#N)=C[C@@]2(C)c3nc(-c4cccc(Br)c4)n(-c4cccc(F)c4)c3CC[C@H]12 [T145]	0.755
7.15	6.97	C[C@H]1C(=O)C(C#N)=C[C@@]2(C)c3nc(-c4cccc(-c5ccncc5)c4)n(-c4cccc(F)c4)c3CC[C@H]12 [T146]	0.423
6.73	6.97	C[C@H]1C(=O)C(C#N)=C[C@@]2(C)c3nc(-c4cccc(-c5cncnc5)c4)n(-c4cccc(F)c4)c3CC[C@H]12 [T147]	0.515
7.07	6.83	C[C@H]1C(=O)C(C#N)=C[C@@]2(C)c3nc(-c4cccc(-c5cncc(F)c5)c4)n(-c4cccc(F)c4)c3CC[C@H]12 [T148]	0.566
6.89	6.80	C[C@H]1C(=O)C(C#N)=C[C@@]2(C)c3nc(-c4cccc(-c5cnn(C)c5)c4)n(-c4cccc(F)c4)c3CC[C@H]12 [T149]	0.687
6.98	6.87	Cc1noc(C)c1-c1cccc(-c2nc3c(n2-c2cccc(F)c2)CC[C@@H]2[C@@H](C)C(=O)C(C#N)=C[C@@]32C)c1 [T150]	0.488
6.81	6.63	C[C@H]1C(=O)C(C#N)=C[C@@]2(C)c3nc(-c4cccc(-c5ccnn5C)c4)n(-c4cccc(F)c4)c3CC[C@H]12 [T151]	0.749
6.88	6.73	C[C@H]1C(=O)C(C#N)=C[C@@]2(C)c3nc(-c4ccc(-c5ccccc5)cc4)n(-c4cccnc4)c3CC[C@H]12 [T152]	1.16
6.97	6.48	CC(C)c1ccc(-c2nc3c(n2-c2cccnc2)CC[C@@H]2[C@@H](C)C(=O)C(C#N)=C[C@@]32C)cc1 [T153]	1.25
6.38	6.24	C[C@H]1C(=O)C(C#N)=C[C@@]2(C)c3nc(-c4ccnc5ccccc45)n(-c4cccnc4)c3CC[C@H]12 [T154]	1.97
6.79	6.70	C[C@H]1C(=O)C(C#N)=C[C@@]2(C)c3nc(-c4cccc(-c5ccccc5)c4)n(-c4cccnc4)c3CC[C@H]12 [T155]	0.738
6.89	6.93	CC(C)c1ccc(-c2nc3c(n2-c2cnn(C)c2)CC[C@@H]2[C@@H](C)C(=O)C(C#N)=C[C@@]32C)cc1 [T156]	1.16
6.49	6.99	C[C@H]1C(=O)C(C#N)=C[C@@]2(C)c3nc(-c4cccc(Cl)c4)n(-c4cnn(C)c4)c3CC[C@H]12 [T157]	1.28
